Values quoted from earlier work in article PMC8559537 (ACS infectious diseases, 2021).

Test system: nanoluciferase (Nluc) expressing C. parvum
Conditions: positive control, 100 mg/kg

Q: For `CCOc1ccc2cc(-c3nn(CC4CCN(C)CC4)c4ncnc(N)c34)ccc2n1` [BKI-1369], which “effect on infection in the IFN-γ KO mouse model” value is on record?
A: reduce infection quickly
